Assay results as given in ChEMBL document CHEMBL1201862, “PubChem BioAssay data set” (2004).
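In this assay, cells in 96-well plates receive the compound at five concentrations for 48 hours. Endpoints are linearly interpolated between the surrounding concentrations. GI50 = concentration required for 50% inhibition of growth.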 The source made the active and inactive calls. No stated cut-off is given here; in the data, active = GI50 up to about 1.1 µM and inactive = higher.

Legend:
Assay in all cases: DTP human tumour cell line panel, 48 h
EKVX = system: EKVX
HCT-116 = system: HCT-116
HCT-15 = system: HCT-15
HOP-62 = system: HOP-62
HOP-92 = system: HOP-92
KM12 = system: KM12
NCI-H23 = system: NCI-H23
NCI-H460 = system: NCI-H460
NCI/ADR-RES = system: NCI/ADR-RES
OVCAR-3 = system: OVCAR-3
OVCAR-5 = system: OVCAR-5
OVCAR-8 = system: OVCAR-8
RXF 393 = system: RXF 393
SK-MEL-2 = system: SK-MEL-2
SN12C = system: SN12C
SNB-19 = system: SNB-19
SR = system: SR
UACC-257 = system: UACC-257
CCRF-CEM = system: CCRF-CEM
SK-MEL-5 = system: SK-MEL-5

SMILES | GI50 (EKVX) | GI50 (HCT-116) | GI50 (HCT-15) | GI50 (HOP-62) | GI50 (HOP-92) | GI50 (KM12) | GI50 (NCI-H23) | GI50 (NCI-H460) | GI50 (NCI/ADR-RES) | GI50 (OVCAR-3) | GI50 (OVCAR-5) | GI50 (OVCAR-8) | GI50 (RXF 393) | GI50 (SK-MEL-2) | GI50 (SN12C) | GI50 (SNB-19) | GI50 (SR) | GI50 (UACC-257) | GI50 (CCRF-CEM) | GI50 (SK-MEL-5)
O=C(N/N=C\c1cccc(O)c1)c1ccncc1 | > 100 µM (inactive) | > 100 µM (inactive) | > 100 µM | > 100 µM (inactive) | > 100 µM (inactive) | > 100 µM (inactive) | > 100 µM (inactive) | > 100 µM (inactive) | > 100 µM (inactive) | > 100 µM (inactive) | > 100 µM (inactive) | > 100 µM (inactive) | > 100 µM (inactive) | > 100 µM (inactive) | > 100 µM (inactive) | > 100 µM (inactive) | > 100 µM (inactive) | > 100 µM (inactive) | – | –
c1cc2nnnn2nc1N1CCCC1 | – | > 100 µM (inactive) | > 100 µM | – | > 100 µM (inactive) | > 100 µM (inactive) | > 100 µM (inactive) | > 100 µM (inactive) | > 100 µM (inactive) | – | > 100 µM (inactive) | > 100 µM (inactive) | > 100 µM (inactive) | > 100 µM (inactive) | > 100 µM (inactive) | > 100 µM (inactive) | > 100 µM (inactive) | > 100 µM (inactive) | > 100 µM (inactive) | > 100 µM (inactive)
CCN(CC)C(=S)SS(=O)(=O)c1cccc(N)c1 | > 100 µM (inactive) | > 100 µM (inactive) | > 100 µM | > 100 µM (inactive) | > 100 µM (inactive) | > 100 µM (inactive) | > 100 µM (inactive) | > 100 µM (inactive) | > 100 µM (inactive) | > 100 µM (inactive) | > 100 µM (inactive) | > 100 µM (inactive) | > 100 µM (inactive) | > 100 µM (inactive) | > 100 µM (inactive) | > 100 µM (inactive) | > 100 µM (inactive) | > 100 µM (inactive) | – | > 100 µM (inactive)
Cc1ccc2nc(SCC(=O)N/N=C3\C(=O)Nc4ccccc43)n(-c3ccccc3)c(=O)c2c1 | 15.6 µM (inactive) | 15.1 µM (inactive) | 17.2 µM | 12.2 µM (inactive) | 14.3 µM (inactive) | 13.6 µM (inactive) | 16.4 µM (inactive) | 15.6 µM (inactive) | 13.3 µM (inactive) | 18.8 µM (inactive) | 15.8 µM (inactive) | – | 14.1 µM (inactive) | 1.69 µM (inactive) | 15.7 µM (inactive) | 17.5 µM (inactive) | 19.5 µM (inactive) | 24 µM (inactive) | 18.4 µM (inactive) | 15.7 µM (inactive)
Cc1ccc(C2=Nn3c(nc4sc(-c5ccccc5)cc4c3=O)SC2)cc1 | > 100 µM (inactive) | > 100 µM (inactive) | > 100 µM | > 100 µM (inactive) | > 100 µM (inactive) | > 100 µM (inactive) | > 100 µM (inactive) | > 100 µM (inactive) | > 100 µM (inactive) | > 100 µM (inactive) | > 100 µM (inactive) | > 100 µM (inactive) | > 10 µM (inactive) | – | > 100 µM (inactive) | – | > 100 µM (inactive) | > 100 µM (inactive) | > 100 µM (inactive) | > 100 µM (inactive)
COC(=O)CC1CN(C(=O)OCc2ccccc2)C(C)(C)O1 (centres undefined) | 35.2 µM (inactive) | > 100 µM (inactive) | > 100 µM | – | 94.6 µM (inactive) | 43.3 µM (inactive) | 28.8 µM (inactive) | > 100 µM (inactive) | > 100 µM (inactive) | > 100 µM (inactive) | > 100 µM (inactive) | > 100 µM (inactive) | > 100 µM (inactive) | > 100 µM (inactive) | > 100 µM (inactive) | 7.08 µM (inactive) | > 100 µM (inactive) | > 100 µM (inactive) | > 100 µM (inactive) | 44.6 µM (inactive)
CC(=O)NCCC1CN(C(=O)/C=C\C#C[Si](C)(C)C)c2ccccc21 (centres undefined) | 14.8 µM (inactive) | > 10 µM (inactive) | 17.2 µM | – | 41.1 µM (inactive) | 24.7 µM (inactive) | 11.9 µM (inactive) | 28.8 µM (inactive) | 22.1 µM (inactive) | 16 µM (inactive) | 17.1 µM (inactive) | 37.9 µM (inactive) | 12.1 µM (inactive) | 14 µM (inactive) | 37.3 µM (inactive) | 26.3 µM (inactive) | > 10 µM (inactive) | 2.55 µM (inactive) | 11.8 µM (inactive) | 6.35 µM (inactive)
O=c1[nH]c2ccsc2c(=O)n1COCc1ccccc1 | > 100 µM (inactive) | > 100 µM (inactive) | > 100 µM | > 100 µM (inactive) | 79.8 µM (inactive) | > 100 µM (inactive) | > 100 µM (inactive) | > 100 µM (inactive) | > 100 µM (inactive) | > 100 µM (inactive) | > 100 µM (inactive) | > 100 µM (inactive) | > 100 µM (inactive) | > 100 µM (inactive) | > 100 µM (inactive) | > 100 µM (inactive) | > 100 µM (inactive) | > 100 µM (inactive) | > 100 µM (inactive) | > 100 µM (inactive)
CNC(=O)OC(COC)CN1CCN(c2ccccc2C)CC1 (centres undefined) | > 10 µM (inactive) | > 10 µM (inactive) | > 10 µM | > 10 µM (inactive) | > 10 µM (inactive) | > 10 µM (inactive) | > 10 µM (inactive) | > 10 µM (inactive) | > 10 µM (inactive) | > 10 µM (inactive) | – | > 10 µM (inactive) | > 10 µM (inactive) | > 10 µM (inactive) | > 10 µM (inactive) | > 10 µM (inactive) | > 10 µM (inactive) | > 10 µM (inactive) | > 10 µM (inactive) | > 10 µM (inactive)
CCOC(=O)c1nc2ccccc2nc1Oc1ccc(OC)cc1 | > 100 µM (inactive) | > 100 µM (inactive) | > 100 µM | > 100 µM (inactive) | > 100 µM (inactive) | > 100 µM (inactive) | – | > 100 µM (inactive) | > 100 µM (inactive) | > 100 µM (inactive) | > 100 µM (inactive) | > 100 µM (inactive) | > 100 µM (inactive) | > 100 µM (inactive) | > 100 µM (inactive) | > 100 µM (inactive) | > 100 µM (inactive) | > 100 µM (inactive) | > 100 µM (inactive) | > 100 µM (inactive)
Cc1cc(S(=O)(=O)[N-]/C(=N/S(=O)(=O)c2ccc(Cl)cc2)[n+]2ccc(N(C)C)cc2)c(S)cc1Cl | > 100 µM (inactive) | 20.5 µM (inactive) | 75.7 µM | 43.5 µM (inactive) | – | > 100 µM (inactive) | > 100 µM (inactive) | 48.3 µM (inactive) | > 100 µM (inactive) | 56.1 µM (inactive) | 61.5 µM (inactive) | > 100 µM (inactive) | 84.1 µM (inactive) | > 100 µM (inactive) | – | – | < 0.01 µM (active) | > 100 µM (inactive) | 46.2 µM (inactive) | > 100 µM (inactive)
COc1ccc(CC2COc3cc(OC)cc(OC)c3C2=O)cc1 (centres undefined) | 29.5 µM (inactive) | 15.3 µM (inactive) | 9.51 µM | 24.9 µM (inactive) | 25.9 µM (inactive) | 8.81 µM (inactive) | 23.6 µM (inactive) | 29.6 µM (inactive) | 8.34 µM (inactive) | 18.9 µM (inactive) | 24.7 µM (inactive) | 26.1 µM (inactive) | 26.8 µM (inactive) | 36.5 µM (inactive) | 38.9 µM (inactive) | 25.2 µM (inactive) | 4.57 µM (inactive) | 32.5 µM (inactive) | – | 21.1 µM (inactive)
COc1cc([N+](=O)[O-])c(S(=O)(=O)O)cc1-n1nc(-c2ccccc2)n[n+]1-c1cc(S(=O)(=O)[O-])c([N+](=O)[O-])cc1OC | > 100 µM (inactive) | > 100 µM (inactive) | > 100 µM | > 100 µM (inactive) | – | > 100 µM (inactive) | > 100 µM (inactive) | > 100 µM (inactive) | > 100 µM (inactive) | > 100 µM (inactive) | > 100 µM (inactive) | > 100 µM (inactive) | > 100 µM (inactive) | > 100 µM (inactive) | > 100 µM (inactive) | > 100 µM (inactive) | > 100 µM (inactive) | > 100 µM (inactive) | > 100 µM (inactive) | > 100 µM (inactive)
C#C/C=C\CCCC/C=C\C#CC#CCCCC#CC#C[C@H](COS(=O)(=O)O)OS(=O)(=O)O | > 100 µM (inactive) | > 100 µM (inactive) | > 100 µM | > 100 µM (inactive) | > 100 µM (inactive) | > 100 µM (inactive) | > 100 µM (inactive) | > 100 µM (inactive) | > 100 µM (inactive) | > 100 µM (inactive) | > 100 µM (inactive) | > 100 µM (inactive) | – | > 100 µM (inactive) | > 100 µM (inactive) | > 100 µM (inactive) | > 100 µM (inactive) | > 100 µM (inactive) | > 100 µM (inactive) | > 100 µM (inactive)
Oc1ccc(-c2nc3ccc(Br)cc3s2)cc1 | 13 µM (inactive) | 20 µM (inactive) | 20.3 µM | – | – | 14.7 µM (inactive) | 22.1 µM (inactive) | 21.7 µM (inactive) | 18.1 µM (inactive) | 14.3 µM (inactive) | 24 µM (inactive) | 20.4 µM (inactive) | 31.3 µM (inactive) | 17.9 µM (inactive) | 18.2 µM (inactive) | 23.3 µM (inactive) | 10.3 µM (inactive) | 21.4 µM (inactive) | 3.74 µM (inactive) | 13.5 µM (inactive)
